# Assay: Human HepG2 cell viability assay in 384 well format
# Format: toxicity, cell-based
# Set-up: dose 125 nL, time 70.5 hour; cytotoxicity at 70.5 h: concentration not given beside the values
# Conditions: HepG2 cells, read-out: Inhibition
row,Structure (SMILES),cytotoxicity at 70.5 h [%]
1,N#Cc1cn(C2CC2)c(=O)n(CC(O)c2ccc(F)cc2)c1=O (stereo not drawn),-16.6
2,Cc1noc2ncc(C(=O)NCC3CCCO3)cc12 (stereo not drawn),-7.11
3,Cc1cc(NC(=O)NCC(O)c2ccc(F)cc2)n(C)n1 (stereo not drawn),-12.7
4,Cc1noc2ncc(C(=O)NCC3CCS(=O)(=O)C3)cc12 (stereo not drawn),-7.14
5,CCN(CC1CCOC1)C(=O)c1cnc2onc(C)c2c1 (stereo not drawn),-8.61
6,Cc1nc(C)c(CC(=O)Nc2nc(C)c(C)s2)c(=O)[nH]1,-17.1
7,CC(Cn1ccnc1)NC(=O)NCCc1cccs1 (stereo not drawn),-11.6
8,CC(Cn1ccnc1)NC(=O)NCCc1cccnc1 (stereo not drawn),-2.45
9,O=C(COCC1CC1)Nc1ncn(CC(=O)N2CCCCCC2)n1,-3.31
10,CC(C)(CNC(=O)CCCOc1cccc(F)c1)C(N)=O,-14.4
11,c1cncc(-c2noc(CN3CCc4cncnc4C3)n2)c1,-12.6
12,COc1ccc(-c2nc(CN3CCc4cncnc4C3)no2)cc1,-3.32
13,O=C(Nc1ncn(CC(=O)N2CCCCCC2)n1)C1CCCC1,-7.56
14,COCCS(=O)(=O)Nc1ccc(-n2cncn2)c(F)c1,-8.99
15,Cc1ccc(-c2noc(CN3CCc4cncnc4C3)n2)cc1,11.6
16,CCCc1noc(CN2CCCCC2Cn2cncn2)n1 (stereo not drawn),-7.74
17,COc1ccc(COCC(=O)N2CCN(CC(C)(C)O)CC2)cc1,-0.338
18,COc1cccc(COCC(=O)N2CCCN(CC(N)=O)CC2)c1,-9.55
19,CCN1CCN(C(=O)COCc2cccc(OC)c2)CC1,-6.27
20,Cc1ccc(CNC(=O)Cn2nc(-c3ccc(F)cc3)oc2=O)cc1F,-7.42
21,O=C(Cn1nc(-c2ccc(F)cc2)oc1=O)NCc1ccccc1F,-5.95
22,COc1cccc(COCC(=O)N2CCN(S(C)(=O)=O)CC2)c1,-4.61
23,Cc1ccsc1C(=O)NCc1ccnc(OCC(F)(F)F)c1,-5.25
24,Cc1ccoc1C(=O)NCc1ccnc(OCC(F)(F)F)c1,-3.36

row,Structure (SMILES),cytotoxicity at 70.5 h [%]
1,Cc1cc(C(=O)NCc2ccnc(OCC(F)(F)F)c2)no1,-9.23
2,Cc1ccc(C(=O)N2CCC(Oc3ccccc3)CC2)c(=O)[nH]1,10.3
3,CC(O)CN1CCN(Cc2csc(-c3cnn(C)c3)n2)CC1 (stereo not drawn),-9.86
4,CC(C)c1nnc2n1CCN(CC(=O)N1CCc3sccc3C1)C2,-6.79
5,Cc1ccc(O)c(CNCC2CCCN2c2cccnn2)n1 (stereo not drawn),-11.5
6,Cc1cc(CN2CCN(C(=O)NC(C)Cn3ccnc3)CC2)on1 (stereo not drawn),29.6
7,N#Cc1cccnc1N1CCC(C2CCCCCN2C(=O)C2CC2)CC1 (stereo not drawn),5.51
8,CC(C)c1noc(CCCC(=O)NC(C)c2ccccn2)n1 (stereo not drawn),-9.67
9,COc1cc(C(=O)Nc2cn[nH]c2)ccc1C,-7
10,O=C(Nc1cn[nH]c1)c1ccncc1,4.52
11,CC(=O)N1CCN(C(=O)CCn2c(C)nc3ccccc3c2=O)CC1,-7.85
12,CN(Cc1ccncc1)C(=O)NC1CCCN(c2ncccn2)C1 (stereo not drawn),-1.22
13,CCN(CC)C(=O)Cn1ccc2cc(NC(C)=O)ccc21,-3.27
14,CCC(=O)Nc1ccc2c(ccn2CC(=O)N(CC)CC)c1,-3.74
15,CCN(CC)C(=O)Cn1ccc2cc(NC(=O)COC)ccc21,-2.77
16,Cc1ccc(C(=O)N(C)Cc2ccc3c(c2)OCO3)c(=O)[nH]1,-4.29
17,COC1CCN(C(=O)Cc2csc(-c3ccccc3)n2)CC1,-5.23
18,CC(C)(C)n1cc(C(=O)N2CCN(Cc3cccnc3)CC2)cn1,-7.69
19,COc1c(CNC(c2ccccc2F)c2nccn2C)c(C)nn1C (stereo not drawn),-4.51
20,CC(C)(C)n1cc(C(=O)N2CCN(Cc3ccncc3)CC2)cn1,-2.1
21,Cc1nc2ccccc2c(=O)n1CCCC(=O)N1CCNC(=O)CC1,2.21
22,Cc1nn(C)c(N(C)C)c1CNC1CCOc2c(Cl)cccc21 (stereo not drawn),23.4
23,CC(C)(C)n1cc(C(=O)N2CCN(Cc3ccco3)CC2)cn1,-8.01
24,CC(Cn1ccnc1)NC(=O)N1CCN(Cc2ccncc2)CC1 (stereo not drawn),-2.15

row,Structure (SMILES),cytotoxicity at 70.5 h [%]
1,CN1CCCC1CNC(=O)CCOc1ccc(Br)cc1 (stereo not drawn),2.76
2,CN(CC(=O)N1CCCC1)C(=O)Cc1csc(-c2ncccn2)n1,-1.25
3,O=C(Nc1cnn(CCN2CCOCC2)c1)c1ccccc1Cl,0.235
4,CCN(CC)C(=O)Cn1ccc2cc(NC(=O)NC3CC3)ccc21,-3.42
5,O=C(CCc1ccc(-c2ccccc2)[nH]1)N1CCCC(n2ccnc2)C1 (stereo not drawn),-1.63
6,N#Cc1cccnc1N1CCC(C2CCCCCN2C(N)=O)CC1 (stereo not drawn),-3.78
7,CNc1nc(CNC(=O)Nc2cccc(Cl)c2Cl)cs1,-1.34
8,CCN(CC)C(=O)Cn1ccc2cc(NC(=O)C3CCCCC3)ccc21,14.5
9,CC(Cn1ccnc1)NC(=O)N1CCN(Cc2ccco2)CC1 (stereo not drawn),0.365
10,CN1CCCC1CNC(=O)CCCOc1ccc(Br)cc1 (stereo not drawn),-3.72
11,Cc1cc(NC(=O)CN2CCn3c(nnc3C(C)C)C2)n(C)n1,34.7
12,Cc1cnn(CCNCc2csc(-c3ccccc3)n2)c1,15.6
13,Cc1nc(C2CCCN2CCCS(N)(=O)=O)no1 (stereo not drawn),17
14,CC(C(=O)N1CCCN(Cc2ccc(C#N)cc2)CC1)n1cncn1 (stereo not drawn),-1.82
15,CCOC(=O)CN(C)C1CCc2ccccc21 (stereo not drawn),26.7
16,CCOCC(O)CN1CCN(C(=O)Cc2cccc(C)c2)CC1 (stereo not drawn),-4.31
17,CC(C)c1nnc2n1CCN(C(=O)c1ccc(Cn3cccc3)cc1)C2,-7.11
18,Cc1cc(NC(=O)CCN2CCn3c(C)nnc3C2)no1,-8.82
19,Cc1cc(C)n(C2CCCN(C(=O)c3ccn(C)c(=O)c3)C2)n1 (stereo not drawn),-9.18
20,CCc1nc(C2CCCN2Cc2noc(Cc3ccccc3)n2)no1 (stereo not drawn),-7.3
21,CN(Cc1nc2ccccc2o1)CC1CCCN1c1cccnn1 (stereo not drawn),7.03
22,Cc1noc(C2CCCN(C(=O)c3cc(Cl)ccc3F)C2)n1 (stereo not drawn),-7.27
23,CCc1nc(C2CCCN2Cc2nnc(CC)o2)no1 (stereo not drawn),-9.92
24,CCc1nc(CN2CCOC(CN(CC)c3cccnn3)C2)cs1 (stereo not drawn),-12.8

row,Structure (SMILES),cytotoxicity at 70.5 h [%]
1,CN(Cc1ccsc1)C(=O)CN1CCCCC1Cn1cccn1 (stereo not drawn),-10
2,CN(Cc1nc2ccccc2n1C)CC1CCCN1c1cccnn1 (stereo not drawn),-11.1
3,Cc1nc(CN(C)CC2CCCN2c2cccnn2)nc2ccccc12 (stereo not drawn),-5.19
4,Cc1noc(CN2CCN(C(=O)c3ccccn3)CC2)n1,-8.75
5,O=c1n(CCSCc2ccccc2Br)nc2ccccn12,4.82
6,CSC(C)C(=O)NCc1ccc(-n2cncn2)nc1 (stereo not drawn),-10.2
7,CCc1nnsc1C(=O)N1CCCN(Cc2ccccc2)CC1,-8.56
8,CC(=O)Nc1nc(C(=O)NC(C)c2ccncc2)cs1 (stereo not drawn),5.86
9,CC(C)COC(C)C(=O)NCc1ccc(-n2cncn2)nc1 (stereo not drawn),3.66
10,CC(C(=O)NCc1ccc(-n2cncn2)nc1)S(C)(=O)=O (stereo not drawn),0.438
11,CNC(=O)NC(=O)CN(CC(C)O)c1ccccc1 (stereo not drawn),-3.36
12,Cc1cc(CN(C)C(=O)NC2CCC(O)CC2)no1 (stereo not drawn),-7.4
13,O=C(Cc1ccc2c(c1)CCC2)N1CCCC(n2cccn2)C1 (stereo not drawn),-6.54
14,N#Cc1ccc(CC(=O)N2CCCC(n3cccn3)C2)cc1 (stereo not drawn),-5.65
15,CCOc1ccccc1CSCCn1nc2ccccn2c1=O,-10.1
16,Cc1cc(CN(C)C(=O)NC2CCCC2)no1,-7.06
17,COc1cccc(-c2nc(CNC(C)Cn3cccn3)cs2)c1 (stereo not drawn),12.8
18,CCc1nc(CN2CCCN(C(=O)C3CCOCC3)CC2)cs1,18.1
19,CCc1nc(CN2CCCN(C(=O)C3CCOC3)CC2)cs1 (stereo not drawn),7.45
20,COc1ccc(C(=O)N(C)Cc2cc(C)on2)c(F)c1,-10.6
21,COc1cccc(-c2nc(CNCCCn3cccn3)cs2)c1,-3.21
22,COc1ccc(-c2nc(CNCCn3cccn3)cs2)cc1,-5.1
23,Cc1nc(CN2CCCN(C(=O)c3c(C)noc3C)CC2)cs1,-5.02
24,Cc1cc(CN(C)C(=O)c2ccc(F)cc2F)no1,-7.99

row,Structure (SMILES),cytotoxicity at 70.5 h [%]
1,CCc1nc(CN2CCCN(C(=O)c3cncnc3C)CC2)cs1,-7.12
2,Cc1cc(NC(=O)C(C)N2CCN(c3nccs3)CC2)on1 (stereo not drawn),-3.21
3,Cc1n[nH]c(=O)c2c(NC(=O)CN3CCOCC3C)oc(C)c12 (stereo not drawn),4.42
4,Cc1n[nH]c(=O)c2c(NC(=O)CN3CCOCC3)oc(C)c12,-8.38
5,Cc1nc(CN2CCN(C(=O)c3c(C)noc3C)CC2)cs1,-3.65
6,CN(Cc1nc2c(cnn2C)c(=O)[nH]1)Cc1ccccc1Cl,-4.36
7,Cc1ccc(CN(C)Cc2nc3c(cnn3C)c(=O)[nH]2)c(C)c1,7.52
8,COc1cccc(CN(C)Cc2nc3c(cnn3C)c(=O)[nH]2)c1OC,-5.01
9,COc1ccccc1CCNC(=O)N1CCCC(c2nncn2C)C1 (stereo not drawn),-1.17
10,CC1CN(CC2CCCC2)CCN1c1ccc2nncn2n1 (stereo not drawn),4.49
11,CN(Cc1ncc(-c2ccccc2)o1)C1CCCN(c2cccnn2)C1 (stereo not drawn),2.02
12,O=C(CN1CCN(c2ccc3nncn3n2)CC1)NC1CCCC1,1.25
13,CCc1nc(CN2CCCN(C(=O)CC3CCCC3)CC2)cs1,4.58
14,O=C(CCSc1ccccc1F)NS(=O)(=O)c1ccc2c(c1)OCCO2,-4.85
15,O=C(CCc1ccc(F)cc1)NS(=O)(=O)c1ccc2c(c1)OCCO2,-4.67
16,O=C(O)c1csc(S(=O)(=O)Nc2cccc(OCC(F)(F)F)c2)c1,-3.57
17,Cc1nc(CN2CCCC(NCc3ccsc3)C2)no1 (stereo not drawn),1.36
18,Cc1cnn(CC2CN(Cc3cccc(C(=O)N(C)C)c3)CCO2)c1 (stereo not drawn),3.78
19,CC(=O)N1CCN(Cn2nc(-c3ccc(F)cc3)oc2=O)CC1,-8.85
20,Fc1cccc(Oc2ccc(CNCC3CNc4ccnn4C3)cn2)c1 (stereo not drawn),0.403
21,CCC(C)(C)NC(=O)Cn1nc(C)nc1-c1cccc(C)c1,-3.94
22,Cc1nn(C)c(N(C)C)c1CNC1CCc2c(Cl)cccc21 (stereo not drawn),-1.83
